Assay results as given in patent publication US11000033B2, “Ketone or oxime compound, and herbicide” (NISSAN CHEMICAL CORPORATION, priority 2014, dated 2021).

How the values were obtained:
Format in all cases: in vivo
Leptochloa chinensis = test: Test Example 3: herbicidal effect by foliage application, Wagner pot (symbol D); details: application herbicide amount 320 g/ha
Outline: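 Seeds sown in alluvial soil kept under 0.1–0.5 cm water, greenhouse 25–30 °C; 14 d growth. Leaves treated by small sprayer with water-diluted emulsion at a predetermined rate. Effect graded by set scale, 3 weeks.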

Avena fatua = test: Test Example 4: herbicidal effect by soil treatment (symbol I); details: 320 g/ha
Outline: (§1)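 Seeds were sown in sterilized diluvial soil, covered with about 1.5 cm of soil, and the soil surface was sprayed with a water-diluted emulsion of the compound at a predetermined rate. Plants grew in a greenhouse at 25° C. to 30° C.; effects were scored visually 3 weeks after application.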

Lolium multiflorum Lam. = test: Test Example 5: herbicidal effect by foliage application, plastic box (symbol K); details: 320 g/ha, 3 weeks after application
Outline: (§2)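 Leaf-applied emulsion, water-diluted to a preset herbicide dose, on two-week-old seedlings raised in a 25° C. to 30° C. greenhouse; injury rated at 3 weeks using earlier criteria.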

Galium spurium = test: Test Example 5: herbicidal effect by foliage application, plastic box (symbol Q); details: 320 g/ha, 3 weeks after application
Outline: as §2

Alopecurus myosuroides [1] = test: Test Example 5: herbicidal effect by foliage application, plastic box (symbol J); details: 320 g/ha, 3 weeks after application
Outline: as §2

Scirpus juncoides = test: Test Example 2: herbicidal activity, application during weed generation in submerged conditions (symbol B); details: Table 23; application herbicide amount 320 g/ha; grade 0-5 by criteria of Test Example 1
Outline: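 Each pot contained alluvial soil under 4 cm of water with seeds of all three weeds sown together. Following growth at 25° C. to 30° C. to the one- to two-leaf stage, the floodwater received diluted emulsion at a predetermined amount; visual assessment followed at 3 weeks.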

corn = test: Test Example 5: effect on crop by foliage application, plastic box (symbol c); details: 320 g/ha, 3 weeks after application
Outline: (§3)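 A greenhouse held between 25° C. and 30° C. was used to grow plants sown spot-wise, beneath ~1.5 cm of soil, in boxes of sterilized diluvial soil.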

Digitaria ciliaris = test: Test Example 5: herbicidal effect by foliage application, plastic box (symbol F); details: 320 g/ha, 3 weeks after application
Outline: as §2

transplanted rice plant = test: Test Example 1: effect on crop, application before weed generation in submerged conditions (symbol a); details: application herbicide amount 320 g/ha
Outline: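 Rice at 2.5 leaf stage transplanted into submerged soil (4 cm depth) sown with three weed species; herbicide applied before weed emergence.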

wheat [2] = test: Test Example 4: effect on crop by soil treatment (symbol e); details: 320 g/ha
Outline: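 Crop seed is sown in spots together with several weed species in a box of sterilized diluvial soil. It is covered by about 1.5 cm of soil and kept in a greenhouse held between 25° C. and 30° C.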

wheat [3] = test: Test Example 5: effect on crop by foliage application, plastic box (symbol e); details: 320 g/ha, 3 weeks after application
Outline: as §3

Alopecurus myosuroides [4] = test: Test Example 4: herbicidal effect by soil treatment (symbol J); details: 320 g/ha
Outline: as §1

Veronica persica = test: Test Example 4: herbicidal effect by soil treatment (symbol R); details: 320 g/ha
Outline: as §1

soybean = test: Test Example 5: effect on crop by foliage application, plastic box (symbol d); details: 320 g/ha, 3 weeks after application
Outline: as §3

## C=C(C)CN(CC)C(=O)OC1=C(c2c(C)cc(C)cc2C)C(=O)C(CC(C)=NOC)C1 (stereo not drawn) [1-130]
Leptochloa chinensis
  herbicidal effect on D (Leptochloa chinensis), grade 0-5: 5 (Herbicidal ratio of 90% or more (almost completely withered))
Avena fatua
  I: Avena fatua, herbicidal effect grade: 0 (Herbicidal ratio of 5% or lower (almost no effect))
Lolium multiflorum Lam.
  K: Lolium multiflorum Lam., herbicidal effect (criteria 0-5): 5 (Herbicidal ratio of 90% or more (almost completely withered))
Galium spurium
  Q: Galium spurium, herbicidal effect (criteria 0-5): 0 (Herbicidal ratio of 5% or lower (almost no effect))
Alopecurus myosuroides [1]
  J: Alopecurus myosuroides, herbicidal effect (criteria 0-5): 5 (Herbicidal ratio of 90% or more (almost completely withered))
Scirpus juncoides
  Herbicidal effect grade, B: Scirpus juncoides: 0 (Herbicidal ratio of 5% or lower (almost no effect))
corn
  c: corn, effect on crop (criteria 0-5): 1 (Herbicidal ratio of 5% or higher and lower than 20%)
Digitaria ciliaris
  F: Digitaria ciliaris, herbicidal effect (criteria 0-5): 4 (Herbicidal ratio of 70% or higher and lower than 90%)
Transplanted rice plant
  Effect grade on crop, a: transplanted rice plant: 3 (Herbicidal ratio of 40% or higher and lower than 70%)
Wheat [2]
  e: wheat, effect grade on crop: 0 (Herbicidal ratio of 5% or lower (almost no effect))
Wheat [3]
  e: wheat, effect on crop (criteria 0-5): 2 (Herbicidal ratio of 20% or higher and lower than 40%)
Alopecurus myosuroides [4]
  J: Alopecurus myosuroides, herbicidal effect grade: 3 (Herbicidal ratio of 40% or higher and lower than 70%)
Veronica persica
  R: Veronica persica, herbicidal effect grade: 0 (Herbicidal ratio of 5% or lower (almost no effect))
soybean
  d: soybean, effect on crop (criteria 0-5): 1 (Herbicidal ratio of 5% or higher and lower than 20%)

## Cc1cc(C)c(C2=C(O)CC(CC(=NOCC(F)(F)F)C3CC3)C2=O)c(C)c1 (stereo not drawn) [1-131]
Leptochloa chinensis
  herbicidal effect on D (Leptochloa chinensis), grade 0-5: 5 (Herbicidal ratio of 90% or more (almost completely withered))
Avena fatua
  I: Avena fatua, herbicidal effect grade: 3 (Herbicidal ratio of 40% or higher and lower than 70%)
Lolium multiflorum Lam.
  K: Lolium multiflorum Lam., herbicidal effect (criteria 0-5): 5 (Herbicidal ratio of 90% or more (almost completely withered))
Galium spurium
  Q: Galium spurium, herbicidal effect (criteria 0-5): 0 (Herbicidal ratio of 5% or lower (almost no effect))
Alopecurus myosuroides [1]
  J: Alopecurus myosuroides, herbicidal effect (criteria 0-5): 5 (Herbicidal ratio of 90% or more (almost completely withered))
Scirpus juncoides
  Herbicidal effect grade, B: Scirpus juncoides: 4 (Herbicidal ratio of 70% or higher and lower than 90%)
corn
  c: corn, effect on crop (criteria 0-5): 3 (Herbicidal ratio of 40% or higher and lower than 70%)
Digitaria ciliaris
  F: Digitaria ciliaris, herbicidal effect (criteria 0-5): 0 (Herbicidal ratio of 5% or lower (almost no effect))
Transplanted rice plant
  Effect grade on crop, a: transplanted rice plant: 4 (Herbicidal ratio of 70% or higher and lower than 90%)
Wheat [2]
  e: wheat, effect grade on crop: 0 (Herbicidal ratio of 5% or lower (almost no effect))
Wheat [3]
  e: wheat, effect on crop (criteria 0-5): 2 (Herbicidal ratio of 20% or higher and lower than 40%)
Alopecurus myosuroides [4]
  J: Alopecurus myosuroides, herbicidal effect grade: 5 (Herbicidal ratio of 90% or more (almost completely withered))
Veronica persica
  R: Veronica persica, herbicidal effect grade: 3 (Herbicidal ratio of 40% or higher and lower than 70%)
soybean
  d: soybean, effect on crop (criteria 0-5): 0 (Herbicidal ratio of 5% or lower (almost no effect))

## CON=C(CC1CC(O)=C(c2c(C)cc(C)cc2C)C1=O)c1ccc(F)cc1 (stereo not drawn) [1-133]
Leptochloa chinensis
  herbicidal effect on D (Leptochloa chinensis), grade 0-5: 0 (Herbicidal ratio of 5% or lower (almost no effect))
Avena fatua
  I: Avena fatua, herbicidal effect grade: 0 (Herbicidal ratio of 5% or lower (almost no effect))
Lolium multiflorum Lam.
  K: Lolium multiflorum Lam., herbicidal effect (criteria 0-5): 5 (Herbicidal ratio of 90% or more (almost completely withered))
Galium spurium
  Q: Galium spurium, herbicidal effect (criteria 0-5): 0 (Herbicidal ratio of 5% or lower (almost no effect))
Alopecurus myosuroides [1]
  J: Alopecurus myosuroides, herbicidal effect (criteria 0-5): 4 (Herbicidal ratio of 70% or higher and lower than 90%)
Scirpus juncoides
  Herbicidal effect grade, B: Scirpus juncoides: 0 (Herbicidal ratio of 5% or lower (almost no effect))
corn
  c: corn, effect on crop (criteria 0-5): 0 (Herbicidal ratio of 5% or lower (almost no effect))
Digitaria ciliaris
  F: Digitaria ciliaris, herbicidal effect (criteria 0-5): 0 (Herbicidal ratio of 5% or lower (almost no effect))
Transplanted rice plant
  Effect grade on crop, a: transplanted rice plant: 1 (Herbicidal ratio of 5% or higher and lower than 20%)
Wheat [2]
  e: wheat, effect grade on crop: 0 (Herbicidal ratio of 5% or lower (almost no effect))
Wheat [3]
  e: wheat, effect on crop (criteria 0-5): 0 (Herbicidal ratio of 5% or lower (almost no effect))
Alopecurus myosuroides [4]
  J: Alopecurus myosuroides, herbicidal effect grade: 5 (Herbicidal ratio of 90% or more (almost completely withered))
Veronica persica
  R: Veronica persica, herbicidal effect grade: 0 (Herbicidal ratio of 5% or lower (almost no effect))
soybean
  d: soybean, effect on crop (criteria 0-5): 3 (Herbicidal ratio of 40% or higher and lower than 70%)

## CON=C(C)CC1CC(OC(=O)CSc2ccccc2)=C(c2c(C)cc(C)cc2C)C1=O (stereo not drawn) [1-134]
Leptochloa chinensis
  herbicidal effect on D (Leptochloa chinensis), grade 0-5: 5 (Herbicidal ratio of 90% or more (almost completely withered))
Avena fatua
  I: Avena fatua, herbicidal effect grade: 2 (Herbicidal ratio of 20% or higher and lower than 40%)
Lolium multiflorum Lam.
  K: Lolium multiflorum Lam., herbicidal effect (criteria 0-5): 5 (Herbicidal ratio of 90% or more (almost completely withered))
Galium spurium
  Q: Galium spurium, herbicidal effect (criteria 0-5): 4 (Herbicidal ratio of 70% or higher and lower than 90%)
Alopecurus myosuroides [1]
  J: Alopecurus myosuroides, herbicidal effect (criteria 0-5): 5 (Herbicidal ratio of 90% or more (almost completely withered))
Scirpus juncoides
  Herbicidal effect grade, B: Scirpus juncoides: 4 (Herbicidal ratio of 70% or higher and lower than 90%)
corn
  c: corn, effect on crop (criteria 0-5): 5 (Herbicidal ratio of 90% or more (almost completely withered))
Digitaria ciliaris
  F: Digitaria ciliaris, herbicidal effect (criteria 0-5): 5 (Herbicidal ratio of 90% or more (almost completely withered))
Transplanted rice plant
  Effect grade on crop, a: transplanted rice plant: 5 (Herbicidal ratio of 90% or more (almost completely withered))
Wheat [2]
  e: wheat, effect grade on crop: 2 (Herbicidal ratio of 20% or higher and lower than 40%)
Wheat [3]
  e: wheat, effect on crop (criteria 0-5): 5 (Herbicidal ratio of 90% or more (almost completely withered))
Alopecurus myosuroides [4]
  J: Alopecurus myosuroides, herbicidal effect grade: 5 (Herbicidal ratio of 90% or more (almost completely withered))
Veronica persica
  R: Veronica persica, herbicidal effect grade: 0 (Herbicidal ratio of 5% or lower (almost no effect))
soybean
  d: soybean, effect on crop (criteria 0-5): 2 (Herbicidal ratio of 20% or higher and lower than 40%)

## CC(CC1CC(O)=C(c2c(C)cc(C)cc2C)C1=O)=NOCC(C)Br (stereo not drawn) [1-135]
Leptochloa chinensis
  herbicidal effect on D (Leptochloa chinensis), grade 0-5: 4 (Herbicidal ratio of 70% or higher and lower than 90%)
Avena fatua
  I: Avena fatua, herbicidal effect grade: 3 (Herbicidal ratio of 40% or higher and lower than 70%)
Lolium multiflorum Lam.
  K: Lolium multiflorum Lam., herbicidal effect (criteria 0-5): 5 (Herbicidal ratio of 90% or more (almost completely withered))
Galium spurium
  Q: Galium spurium, herbicidal effect (criteria 0-5): 0 (Herbicidal ratio of 5% or lower (almost no effect))
Alopecurus myosuroides [1]
  J: Alopecurus myosuroides, herbicidal effect (criteria 0-5): 5 (Herbicidal ratio of 90% or more (almost completely withered))
Scirpus juncoides
  Herbicidal effect grade, B: Scirpus juncoides: 4 (Herbicidal ratio of 70% or higher and lower than 90%)
corn
  c: corn, effect on crop (criteria 0-5): 4 (Herbicidal ratio of 70% or higher and lower than 90%)
Digitaria ciliaris
  F: Digitaria ciliaris, herbicidal effect (criteria 0-5): 5 (Herbicidal ratio of 90% or more (almost completely withered))
Transplanted rice plant
  Effect grade on crop, a: transplanted rice plant: 5 (Herbicidal ratio of 90% or more (almost completely withered))
Wheat [2]
  e: wheat, effect grade on crop: 0 (Herbicidal ratio of 5% or lower (almost no effect))
Wheat [3]
  e: wheat, effect on crop (criteria 0-5): 2 (Herbicidal ratio of 20% or higher and lower than 40%)
Alopecurus myosuroides [4]
  J: Alopecurus myosuroides, herbicidal effect grade: 5 (Herbicidal ratio of 90% or more (almost completely withered))
Veronica persica
  R: Veronica persica, herbicidal effect grade: 2 (Herbicidal ratio of 20% or higher and lower than 40%)
soybean
  d: soybean, effect on crop (criteria 0-5): 1 (Herbicidal ratio of 5% or higher and lower than 20%)

## CC(CC1CC(O)=C(c2c(C)cc(C)cc2C)C1=O)=NOCc1ccc(F)cc1 (stereo not drawn) [1-136]
Leptochloa chinensis
  herbicidal effect on D (Leptochloa chinensis), grade 0-5: 2 (Herbicidal ratio of 20% or higher and lower than 40%)
Avena fatua
  I: Avena fatua, herbicidal effect grade: 3 (Herbicidal ratio of 40% or higher and lower than 70%)
Lolium multiflorum Lam.
  K: Lolium multiflorum Lam., herbicidal effect (criteria 0-5): 5 (Herbicidal ratio of 90% or more (almost completely withered))
Galium spurium
  Q: Galium spurium, herbicidal effect (criteria 0-5): 4 (Herbicidal ratio of 70% or higher and lower than 90%)
Alopecurus myosuroides [1]
  J: Alopecurus myosuroides, herbicidal effect (criteria 0-5): 5 (Herbicidal ratio of 90% or more (almost completely withered))
Scirpus juncoides
  Herbicidal effect grade, B: Scirpus juncoides: 4 (Herbicidal ratio of 70% or higher and lower than 90%)
corn
  c: corn, effect on crop (criteria 0-5): 3 (Herbicidal ratio of 40% or higher and lower than 70%)
Digitaria ciliaris
  F: Digitaria ciliaris, herbicidal effect (criteria 0-5): 5 (Herbicidal ratio of 90% or more (almost completely withered))
Transplanted rice plant
  Effect grade on crop, a: transplanted rice plant: 5 (Herbicidal ratio of 90% or more (almost completely withered))
Wheat [2]
  e: wheat, effect grade on crop: 3 (Herbicidal ratio of 40% or higher and lower than 70%)
Wheat [3]
  e: wheat, effect on crop (criteria 0-5): 3 (Herbicidal ratio of 40% or higher and lower than 70%)
Alopecurus myosuroides [4]
  J: Alopecurus myosuroides, herbicidal effect grade: 5 (Herbicidal ratio of 90% or more (almost completely withered))
Veronica persica
  R: Veronica persica, herbicidal effect grade: 0 (Herbicidal ratio of 5% or lower (almost no effect))
soybean
  d: soybean, effect on crop (criteria 0-5): 1 (Herbicidal ratio of 5% or higher and lower than 20%)
